Data reported in article PMC9571547, “New Triazinoindole Bearing Benzimidazole/Benzoxazole Hybrids Analogs as Potent Inhibitors of Urease: Synthesis, In Vitro Analysis and Molecular Docking Studies” (Molecules, 2022).

What follows are compounds tested against urease enzyme (Canavalia ensiformis, UniProt P07374) (assay: biochemical). Conditions: not given.
Sequence of urease enzyme (P07374 whole entry, looked up): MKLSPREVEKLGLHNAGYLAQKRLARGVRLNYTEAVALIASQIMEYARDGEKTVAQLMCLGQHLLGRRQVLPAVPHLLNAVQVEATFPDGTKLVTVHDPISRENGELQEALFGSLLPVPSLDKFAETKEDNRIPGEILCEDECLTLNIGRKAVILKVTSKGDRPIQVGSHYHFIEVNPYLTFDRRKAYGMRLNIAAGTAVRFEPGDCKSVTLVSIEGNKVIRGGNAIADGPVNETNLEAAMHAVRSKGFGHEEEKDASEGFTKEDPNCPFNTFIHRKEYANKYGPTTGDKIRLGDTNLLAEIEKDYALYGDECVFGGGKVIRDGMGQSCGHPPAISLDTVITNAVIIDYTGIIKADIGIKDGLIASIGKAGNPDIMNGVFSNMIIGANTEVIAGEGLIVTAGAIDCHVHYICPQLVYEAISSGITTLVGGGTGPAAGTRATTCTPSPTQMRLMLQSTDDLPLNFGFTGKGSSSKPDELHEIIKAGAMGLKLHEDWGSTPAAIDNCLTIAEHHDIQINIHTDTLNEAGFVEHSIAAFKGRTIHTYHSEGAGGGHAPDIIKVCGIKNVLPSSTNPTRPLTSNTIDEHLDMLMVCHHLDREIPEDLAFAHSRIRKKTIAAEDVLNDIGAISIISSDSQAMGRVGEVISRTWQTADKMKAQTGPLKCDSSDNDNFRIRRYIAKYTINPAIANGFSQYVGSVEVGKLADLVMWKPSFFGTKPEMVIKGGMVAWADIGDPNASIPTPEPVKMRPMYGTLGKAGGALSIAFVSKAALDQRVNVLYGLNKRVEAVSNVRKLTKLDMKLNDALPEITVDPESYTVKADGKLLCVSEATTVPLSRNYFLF
Format: biochemical
Experimental: First, 5 μL of the test compounds were added to the reaction mixtures, which also contained 25 μL of enzyme solution and 55 μL of buffer containing 100 mM urea, then the mixtures were incubated in 96-well plates at 30 °C for 15 min (0.5 mM concentration). For the kinetics analysis, urea concentrations were changed from 2 to 24 mM. Urease activity was determined by measuring ammonia generation using Weatherburn’s indophenol method. In a nutshell, each well received 45 μL of the 0.005% w/v sodium nitroprusside, phenol reagent 1% w/v phenol, and 70 μL of the alkali reagent—0.1% active chloride NaOCl and 0.5% w/v NaOH. Using a microplate reader, rising absorbance at 630 nm was observed after 50 min (Molecular Devices, San Jose, CA, USA). In a final volume of 200 μL, each reaction was carried out three times. Using the software SoftMaxPro, the results (change in absorbance per minute) were processed (Molecular Devices, San Jose, CA, USA). The experiments were run at pH 6.8 throughout. The formula 100-(ODtest well/ODcontrol) 100 was used to calculate the percentage of inhibition.
For `O=C(c1ccc([N+](=O)[O-])cc1)n1c(CSc2nnc3c4cc([N+](=O)[O-])ccc4n(C(=O)c4ccc([N+](=O)[O-])cc4)c3n2)nc2ccccc21` [analog 1], the IC50 was 17.6 ± 0.3 µM. `O=C(c1ccc(O)cc1O)n1c(CSc2nnc3c4cc([N+](=O)[O-])ccc4n(C(=O)c4ccc(O)cc4O)c3n2)nc2ccccc21` [analog 2] was tested, and the IC50 was 1.9 ± 0.1 µM. In the case of `O=C(c1cc(O)cc(O)c1)n1c(CSc2nnc3c4cc([N+](=O)[O-])ccc4n(C(=O)c4cc(O)cc(O)c4)c3n2)nc2ccccc21` [analog 3], the IC50 is reported as 2.1 ± 0.1 µM. With `COc1ccccc1C(=O)n1c(CSc2nnc3c4cc([N+](=O)[O-])ccc4n(C(=O)c4ccccc4OC)c3n2)nc2ccccc21` [analog 4] the IC50 was 32.2 ± 0.3 µM. `O=C(c1ccc(O)c(O)c1)n1c(CSc2nnc3c4cc([N+](=O)[O-])ccc4n(C(=O)c4ccc(O)c(O)c4)c3n2)nc2ccccc21` [analog 5] showed an IC50 of 0.9 ± 0.01 µM. `O=C(c1cc(O)ccc1O)n1c(CSc2nnc3c4cc([N+](=O)[O-])ccc4n(C(=O)c4cc(O)ccc4O)c3n2)nc2ccccc21` [analog 6] showed an IC50 of 6.7 ± 0.2 µM. In the case of `O=C(c1cccc(O)c1)n1c(CSc2nnc3c4cc([N+](=O)[O-])ccc4n(C(=O)c4cccc(O)c4)c3n2)nc2ccccc21` [analog 7], the IC50 is reported as 18.9 ± 0.4 µM. Compound `O=C(c1c(O)cc(O)cc1O)n1c(CSc2nnc3c4cc([N+](=O)[O-])ccc4n(C(=O)c4c(O)cc(O)cc4O)c3n2)nc2ccccc21` [analog 8] has an IC50 of 0.2 ± 0.01 µM. `CN(C)c1ccc(C(=O)n2c(CSc3nnc4c5cc([N+](=O)[O-])ccc5n(C(=O)c5ccc(N(C)C)cc5)c4n3)nc3ccccc32)cc1` [analog 9] was tested, and the IC50 was 31.1 ± 0.3 µM. `O=C(c1ccccc1[N+](=O)[O-])n1c(CSc2nnc3c4cc([N+](=O)[O-])ccc4n(C(=O)c4ccccc4[N+](=O)[O-])c3n2)nc2ccccc21` [analog 10] gave an IC50 of 19.3 ± 0.4 µM. Work on `O=C(c1cccc([N+](=O)[O-])c1)n1c(CSc2nnc3c4cc([N+](=O)[O-])ccc4n(C(=O)c4cccc([N+](=O)[O-])c4)c3n2)nc2ccccc21` [analog 11] yielded an IC50 of 26.6 ± 0.5 µM. In the case of `O=C(c1ccc(O)cc1)n1c(CSc2nnc3c4cc([N+](=O)[O-])ccc4n(C(=O)c4ccc(O)cc4)c3n2)nc2ccccc21` [analog 12], the IC50 is reported as 14.6 ± 0.3 µM. Compound `O=C(c1ccc(Cl)cc1)n1c2ccc([N+](=O)[O-])cc2c2nnc(SCc3nc4ccccc4o3)nc21` [analog 13] has an IC50 of 9.7 ± 0.2 µM. `COC(=O)c1ccc(C(=O)n2c3ccc([N+](=O)[O-])cc3c3nnc(SCc4nc5ccccc5o4)nc32)cc1` [analog 14] was tested, and the IC50 was 23.9 ± 0.5 µM. For `Cc1ccccc1C(=O)n1c2ccc([N+](=O)[O-])cc2c2nnc(SCc3nc4ccccc4o3)nc21` [analog 15], the IC50 was 36.2 ± 0.7 µM. `Cc1ccc(C(=O)n2c3ccc([N+](=O)[O-])cc3c3nnc(SCc4nc5ccccc5o4)nc32)cc1` [analog 16] gave an IC50 of 28.2 ± 0.5 µM. Compound `O=C(c1cccc(Cl)c1)n1c2ccc([N+](=O)[O-])cc2c2nnc(SCc3nc4ccccc4o3)nc21` [analog 17] has an IC50 of 22.2 ± 0.5 µM. `O=C(c1ccccc1O)n1c2ccc([N+](=O)[O-])cc2c2nnc(SCc3nc4ccccc4o3)nc21` [analog 18] gave an IC50 of 3.8 ± 0.1 µM. For `Cc1cccc(C(=O)n2c3ccc([N+](=O)[O-])cc3c3nnc(SCc4nc5ccccc5o4)nc32)c1` [analog 19], the IC50 was 34.9 ± 0.7 µM. With `COc1ccc(C(=O)n2c3ccc([N+](=O)[O-])cc3c3nnc(SCc4nc5ccccc5o4)nc32)cc1O` [analog 20] the IC50 was 2.7 ± 0.1 µM. With `COc1ccc(C(=O)n2c3ccc([N+](=O)[O-])cc3c3nnc(SCc4nc5ccccc5o4)nc32)c(OC)c1` [analog 21] the IC50 was 31.8 ± 0.5 µM. Compound `O=C(c1cccc(O)c1O)n1c2ccc([N+](=O)[O-])cc2c2nnc(SCc3nc4ccccc4o3)nc21` [analog 22] has an IC50 of 1.7 ± 0.1 µM. `O=C(c1ccccc1F)n1c2ccc([N+](=O)[O-])cc2c2nnc(SCc3nc4ccccc4o3)nc21` [analog 23] gave an IC50 of 1.1 ± 0.01 µM. `O=C(c1cccc(F)c1)n1c2ccc([N+](=O)[O-])cc2c2nnc(SCc3nc4ccccc4o3)nc21` [analog 24] was tested, and the IC50 was 1.6 ± 0.01 µM. Work on `O=C(c1cccc([N+](=O)[O-])c1)n1c2ccc([N+](=O)[O-])cc2c2nnc(SCc3nc4ccccc4o3)nc21` [analog 25] yielded an IC50 of 21.2 ± 0.4 µM.

Same assay, conditions: in vitro; pH 6.8; 30 °C; 100 mM urea; thiourea as standard; read-out: IC50 ± SEM against the urease enzyme
Compound `NC(N)=S` [Standard Thiourea, thiourea, reference compound] has an IC50 of 21.9 ± 0.4 µM.

Same assay, conditions: urease inhibition, compared to thiourea
In the case of `O=C(c1cccc(O)c1O)n1c2ccc([N+](=O)[O-])cc2c2nnc(SCc3nc4ccccc4o3)nc21` [analog 22], the “potency relative to standard thiourea drug (fold)” value is reported as “ten-fold-enhanced inhibitory potential”. In the case of `O=C(c1ccccc1F)n1c2ccc([N+](=O)[O-])cc2c2nnc(SCc3nc4ccccc4o3)nc21` [analog 23], the “potency relative to standard thiourea drug (fold)” value is reported as “ten-fold-enhanced inhibitory potential”.
